Patent publication US8940768B2, “Antifungal triazole derivatives” (Daewoong Pharmaceutical Co., Ltd., priority 2010, dated 2015)

System: Candida albicans
Assay: in vitro antifungal activity (MIC80), Candida albicans
Type: cell-based
Conditions: 80% growth inhibition vs negative control, RPMI 1640, read 24 hrs after application, Table 2, read-out: Antifungal Activity (MIC80) Candida albicans
Experimental: The compounds of the present invention were evaluated for inhibitory activity against yeast molds including Candida albicans, Candida glabrata, Candida krusei, Candida tropicalis, Candida parapsilosis, and Cryptococcus neoformans, and filamentous fungi including Aspergillus fumigatus, Trichophyton mentagrophytes (obtained from KCTC (Korean Collection for Type Cultures), and Trichophyton rubrum (obtained from KCCM (Korean Culture Center of Microorganisms). All the strains, but Trichophyton mentagrophytes and Trichophyton rubrum, were purchased from the ATCC (American Type Culture Collection).
Of the strains used in this test, Candida albicans, Candida glabrata, Candida krusei, Candida tropicalis, Candida parapsilosis, Trichophyton mentagrophytes and Trichophyton rubrum were inoculated into sabouraud dextrose agars (Difco, BD-0109), Cryptococcus neoformans into a yeast mold agar (YM agar, Difco, 271210), and Aspergillus fumigatus into a malt extract agar (Difco, 211220), before incubation at 35° C. for two to ten days.
From the agars on which the yeast molds were grown, single colonies were picked up, and each was sufficiently suspended in 5 mL of already prepared, 0.85% sterile saline. After correction of the absorbance to 0.108 at 530 nm, each of the suspensions was diluted to a ratio of 1:50 in an RPMI (Roswell park memorial institute) 1640 medium and then to a ratio of 1:20 to prepare an inoculum having a cell density of from 1.0×10^3 to 5.0×10^3CFU/mL. The cell density was adjusted into […]˜5.0×10^4 CFU/mL for Aspergillus fumigates and 0.4×10^4˜5.0×10^4 CFU/mL for both Trichophyton mentagrophytes and Trichophyton rubrum.
The antifungal agent samples were prepared by diluting the active compounds in an RPMI 1640 medium to a serial density of from 0.0156 to 32 μg/mL. In this context, dimethylsulfoxide (DMSO) was used as an excipient at a final concentration of 1% (v/v). The serial dilutions were aliquoted at a volume of 0.1 mL and applied to 0.1 mL of the aliquots of each inoculum, followed by incubation.
With the naked eyes, an observation was made of all of the yeast molds, but Cryptococcus neoformans 24 hrs after the application, Cryptococcus neoformans and Aspergillus fumigatus 48 hrs after the application, and Trichophyton mentagrophytes and Trichophyton rubrum five days after the application to examine whether the fungi grew or not. In addition, Alamarblue™ as used to determine the concentrations of the compounds of the present invention at which the growth of the microorganisms was 80% inhibited compared to that of the negative control. All experiments were performed in duplicate for each of the test concentration groups.

Row | MIC80 [µg/mL] | Compound
1 | ≤ 0.015 | C[C@@H](N1CCC(Oc2ccccc2F)CC1)[C@](O)(Cn1cncn1)c1ccc(F)cc1F [Example 3, (2R,3R)-2-(2,4-difluorophenyl)-3-(4-(2-fluorophenoxy)piperidin-1-yl)-1-(1H-1,2,4-triazol-1-yl)butan-2-ol]
2 | ≤ 0.015 | C[C@@H](N1CCC(Oc2ccc(F)cn2)CC1)[C@](O)(Cn1cncn1)c1ccc(F)cc1F [Example 25, (2R,3R)-2-(2,4-difluorophenyl)-3-(4-((5-fluoropyridin-2-yl)oxy)piperidin-1-yl)-1-(1H-1,2,4-triazol-1-yl)butan-2-ol]
3 | ≤ 0.015 | C[C@@H](N1CCC(Oc2ccc(Cl)cn2)CC1)[C@](O)(Cn1cncn1)c1ccc(F)cc1F [Example 26, (2R,3R)-3-(4-((5-chloropyridin-2-yl)oxy)piperidin-1-yl)-2-(2,4-difluorophenyl)-1-(1H-1,2,4-triazol-1-yl)butan-2-ol]
4 | ≤ 0.015 | C[C@@H](N1CCC(Oc2ncc(F)cn2)CC1)[C@](O)(Cn1cncn1)c1ccc(F)cc1F [Example 30, (2R,3R)-2-(2,4-difluorophenyl)-3-(4-((5-fluoropyrimidin-2-yl)oxy)piperidin-1-yl)-1-(1H-1,2,4-triazol-1-yl)butan-2-ol]
5 | ≤ 0.015 | C[C@@H](N1CCC(Nc2ccccc2)CC1)[C@](O)(Cn1cncn1)c1ccc(F)cc1F [Example 35, (2R,3R)-2-(2,4-difluorophenyl)-3-(4-(phenylamino)piperidin-1-yl)-1-(1H-1,2,4-triazol-1-yl)butan-2-ol]
6 | ≤ 0.015 | C[C@@H](N1CCC(Nc2ccc(F)cc2)CC1)[C@](O)(Cn1cncn1)c1ccc(F)cc1F [Example 38, (2R,3R)-2-(2,4-difluorophenyl)-3-(4-((4-fluorophenyl)amino)piperidin-1-yl)-1-(1H-1,2,4-triazol-1-yl)butan-2-ol]
7 | ≤ 0.015 | C[C@@H](N1CCC(Nc2ccc(C(F)(F)F)cc2)CC1)[C@](O)(Cn1cncn1)c1ccc(F)cc1F [Example 46, (2R,3R)-2-(2,4-difluorophenyl)-1-(1H-1,2,4-triazol-1-yl)-3-(4-((4-(trifluoromethyl)phenyl)amino)piperidin-1-yl)butan-2-ol]
8 | ≤ 0.015 | C[C@@H](N1CCC(Nc2ccc(C#N)cc2)CC1)[C@](O)(Cn1cncn1)c1ccc(F)cc1F [Example 49, 4-((1-((2R,3R)-3-(2,4-difluorophenyl)-3-hydroxy-4-(1H-1,2,4-triazol-1-yl)butan-2-yl)piperidin-4-yl)amino)benzonitrile]
9 | ≤ 0.015 | C[C@@H](N1CCC(Nc2ncc(C(F)(F)F)cc2Cl)CC1)[C@](O)(Cn1cncn1)c1ccc(F)cc1F [Example 60, (2R,3R)-3-(4-((3-chloro-5-(trifluoromethyl)pyridin-2-yl)amino)piperidin-1-yl)-2-(2,4-difluorophenyl)-1-(1H-1,2,4-triazol-1-yl)butan-2-ol]
10 | ≤ 0.015 | C[C@@H](N1CCC(Nc2ncccn2)CC1)[C@](O)(Cn1cncn1)c1ccc(F)cc1F [Example 62, (2R,3R)-2-(2,4-difluorophenyl)-3-(4-(pyrimidin-2-ylamino)piperidin-1-yl)-1-(1H-1,2,4-triazol-1-yl)butan-2-ol]
11 | ≤ 0.015 | C[C@@H](N1CCC(Nc2ncc(Br)cn2)CC1)[C@](O)(Cn1cncn1)c1ccc(F)cc1F [Example 64, (2R,3R)-3-(4-((5-bromopyrimidin-2-yl)-amino)piperidin-1-yl)-2-(2,4-difluorophenyl)-1-(1H-1,2,4-triazol-1-yl)butan-2-ol]
12 | ≤ 0.015 | C[C@@H](OC1CCN(c2ncccn2)CC1)[C@](O)(Cn1cncn1)c1ccc(F)cc1F [Example 89, (2R,3R)-2-(2,4-difluorophenyl)-3-((1-(pyrimidin-2-yl)piperidin-4-yl)oxy)-1-(1H-1,2,4-triazol-1-yl)butan-2-ol]

Further lines, the molecule ahead of its results:

Row | Compound | MIC80 [µg/mL]
13 | C[C@@H](N1CCC(Oc2ccc(C#N)cc2)CC1)[C@](O)(Cn1cncn1)c1ccc(F)cc1F [Example 16, 4-((1-((2R,3R)-3-(2,4-difluorophenyl)-3-hydroxy-4-(1H-1,2,4-triazol-1-yl)butan-2-yl)piperidin-4-yl)oxy)benzonitrile] | ≤ 0.015
14 | C[C@@H](N1CCC(N(C)c2ccccc2)CC1)[C@](O)(Cn1cncn1)c1ccc(F)cc1F [Example 67, (2R,3R)-2-(2,4-difluorophenyl)-3-(4-(methyl(phenyl)amino)piperidin-1-yl)-1-(1H-1,2,4-triazol-1-yl)butan-2-ol] | ≤ 0.015
15 | C[C@@H](N1CCC(N(C)c2ccc(F)cc2)CC1)[C@](O)(Cn1cncn1)c1ccc(F)cc1F [Example 70, (2R,3R)-2-(2,4-difluorophenyl)-3-(4-((4-fluorophenyl)(methyl)amino)piperidin-1-yl)-1-(1H-1,2,4-triazol-1-yl)butan-2-ol] | ≤ 0.015
16 | C[C@@H](N1CCC(N(C)c2ccc(Cl)cc2)CC1)[C@](O)(Cn1cncn1)c1ccc(F)cc1F [Example 73, (2R,3R)-3-(4-((4-chlorophenyl)(methyl)amino)piperidin-1-yl)-2-(2,4-difluorophenyl)-1-(1H-1,2,4-triazol-1-yl)butan-2-ol] | ≤ 0.015
17 | C[C@@H](N1CCC(N(C)c2ccc(C(F)(F)F)cc2)CC1)[C@](O)(Cn1cncn1)c1ccc(F)cc1F [Example 79, (2R,3R)-2-(2,4-difluorophenyl)-3-(4-(methyl(4-(trifluoromethyl)phenyl)amino)piperidin-1-yl)-1-(1H-1,2,4-triazol-1-yl)butan-2-ol] | ≤ 0.015
18 | C[C@@H](N1CCC(N(C)c2ccc(C#N)cc2)CC1)[C@](O)(Cn1cncn1)c1ccc(F)cc1F [Example 82, 4-((1-((2R,3R)-3-(2,4-difluorophenyl)-3-hydroxy-4-(1H-1,2,4-triazol-1-yl)butan-2-yl)piperidin-4-yl)(methyl)amino)benzonitrile] | ≤ 0.015
19 | C[C@@H](OC1CCN(c2ccccc2)CC1)[C@](O)(Cn1cncn1)c1ccc(F)cc1F [Example 90, (2R,3R)-2-(2,4-difluorophenyl)-3-((1-phenylpiperidin-4-yl)oxy)-1-(1H-1,2,4-triazol-1-yl)butan-2-ol] | ≤ 0.015
20 | C[C@@H](OC1CCN(c2ccc(F)cc2)CC1)[C@](O)(Cn1cncn1)c1ccc(F)cc1F [Example 93, (2R,3R)-2-(2,4-difluorophenyl)-3-((1-(4-fluorophenyl)piperidin-4-yl)oxy)-1-(1H-1,2,4-triazol-1-yl)butan-2-ol] | ≤ 0.015
21 | C[C@@H](OC1CCN(c2ccc(Cl)cc2)CC1)[C@](O)(Cn1cncn1)c1ccc(F)cc1F [Example 96, (2R,3R)-3-((1-(4-chlorophenyl)piperidin-4-yl)oxy)-2-(2,4-difluorophenyl)-1-(1H-1,2,4-triazol-1-yl)butan-2-ol] | ≤ 0.015
22 | C[C@@H](OC1CCN(c2ccc(C(F)(F)F)cc2)CC1)[C@](O)(Cn1cncn1)c1ccc(F)cc1F [Example 102, (2R,3R)-2-(2,4-difluorophenyl)-1-(1H-1,2,4-triazol-1-yl)-3-((1-(4-(trifluoromethyl)phenyl)piperidin-4-yl)oxy)butan-2-ol] | ≤ 0.015
23 | C[C@@H](OC1CCN(c2ccc(C#N)cc2)CC1)[C@](O)(Cn1cncn1)c1ccc(F)cc1F [Example 105, 4-(4-(((2R,3R)-3-(2,4-difluorophenyl)-3-hydroxy-4-(1H-1,2,4-triazol-1-yl)butan-2-yl)oxy)piperidin-1-yl)benzonitrile] | ≤ 0.015
24 | C[C@@H](OC1CCN(c2ccc(F)cn2)CC1)[C@](O)(Cn1cncn1)c1ccc(F)cc1F [Example 114, (2R,3R)-2-(2,4-difluorophenyl)-3-((1-(5-fluoropyridin-2-yl)piperidin-4-yl)oxy)-1-(1H-1,2,4-triazol-1-yl)butan-2-ol] | ≤ 0.015
25 | C[C@@H](OC1CCN(c2ccc(Cl)cn2)CC1)[C@](O)(Cn1cncn1)c1ccc(F)cc1F [Example 115, (2R,3R)-3-((1-(5-chloropyridin-2-yl)piperidin-4-yl)oxy)-2-(2,4-difluorophenyl)-1-(1H-1,2,4-triazol-1-yl)butan-2-ol] | ≤ 0.015
26 | Cc1cc(C(F)(F)F)cnc1N1CCC(O[C@H](C)[C@](O)(Cn2cncn2)c2ccc(F)cc2F)CC1 [Example 116, (2R,3R)-2-(2,4-difluorophenyl)-3-((1-(3-methyl-5-(trifluoromethyl)pyridin-2-yl)piperidin-4-yl)oxy)-1-(1H-1,2,4-triazol-1-yl)butan-2-ol] | ≤ 0.015
27 | C[C@@H](OC1CCN(c2ncc(F)cn2)CC1)[C@](O)(Cn1cncn1)c1ccc(F)cc1F [Example 118, (2R,3R)-2-(2,4-difluorophenyl)-3-((1-(5-fluoropyrimidin-2-yl)piperidin-4-yl)oxy)-1-(1H-1,2,4-triazol-1-yl)butan-2-ol] | ≤ 0.015
